From patent US8901038B2, “Biphenyl-substituted cyclic ketoenols” (Bayer CropScience AG, priority 2010, dated 2014)

What was measured:
Assay type in all cases: in vivo
[1] = test system: greenhouse red spider mite (Tetranychus urticae); test: Tetranychus test; OP-resistant (TETRUR spray treatment); settings: application rate 100 g/ha; bean leaf discs sprayed; after 6 days
Description: Tetranychus Test; OP-Resistant (TETRUR Spray Treatment)
(§1) • Solvents: 78.0 parts by weight of acetone • 1.5 parts by weight of dimethylformamide • Emulsifier: 0.5 part by weight of alkylaryl polyglycol ether
To produce a suitable preparation of active compound, 1 part by weight of active compound is mixed with the stated amounts of solvent and emulsifier, and the concentrate is diluted with emulsifier-containing water to the desired concentration. Discs of bean leaves (Phaseolus vulgaris), which are infested by all stages of the greenhouse red spider mite (Tetranychus urticae) are sprayed with an active compound preparation of the desired concentration.
After 6 days, the effect in % is determined. 100% means that all spider mites have been killed; 0% means that none of the spider mites have been killed.

[2] = test system: green peach aphid (Myzus persicae); test: Myzus test (MYZUPE spray treatment); settings: Chinese cabbage leaf discs sprayed, after 6 days
Description: Myzus Test (MYZUPE Spray Treatment)
• Solvents: 78 parts by weight of acetone • 1.5 parts by weight of dimethylformamide • Emulsifier: 0.5 part by weight of alkylaryl polyglycol ether
To produce a suitable preparation of active compound, 1 part by weight of active compound is mixed with the stated amounts of solvent and emulsifier, and the concentrate is diluted with emulsifier-containing water to the desired concentration. Discs of Chinese cabbage (Brassica pekinensis) which are infested by all stages of the green peach aphid (Myzus persicae) are sprayed with an active compound preparation of the desired concentration. After 6 days, the effect in % is determined. 100% means that all aphids have been killed; 0% means that none of the aphids have been killed.

Boophilus microplus = Boophilus microplus test (BOOPMI injection); settings: application rate 20 μg/animal; injection into the abdomen; after 7 days
Description: Boophilus microplus Test (BOOPMI Injection)
(§2) • Solvent: Dimethyl sulphoxide
To produce a suitable preparation of active compound, 10 mg of active compound are mixed with 0.5 ml of solvent and the concentrate is diluted with solvent to the desired concentration. The solution of active compound is injected into the abdomen (Boophilus microplus) and the animals are transferred into dishes and stored in a climatized room. The efficacy is monitored for deposition of fertile eggs.
After 7 days, the effect in % is determined. 100% means that none of the ticks has laid any fertile eggs.

[3] = test system: larvae of the mustard beetle (Phaedon cochleariae); test: Phaedon test (PHAECO spray treatment); settings: application rate 500 g/ha; Chinese cabbage leaf discs sprayed; after 7 days
Description: Phaedon Test (PHAECO Spray Treatment)
as §1
To produce a suitable preparation of active compound, one part by weight of active compound is mixed with the stated amounts of solvents and emulsifier, and the concentrate is diluted with emulsifier-containing water to the desired concentration. […].
After 7 days, the effect in % is determined. 100% means that all beetle larvae have been killed; 0% means that none of the beetle larvae have been killed.

[4] = test system: caterpillars of the armyworm (Spodoptera frugiperda); test: Spodoptera frugiperda test (SPODFR spray treatment); settings: application rate 500 g/ha; maize leaf discs sprayed; after 7 days
Description: Spodoptera frugiperda Test (SPODFR Spray Treatment)
as §1
To produce a suitable preparation of active compound, 1 part by weight of active compound is mixed with the stated amounts of solvent and emulsifier, and the concentrate is diluted with emulsified water to the desired concentration. Discs of maize leaves (Zea mays) are sprayed with an active compound preparation of the desired concentration and, after drying, populated with caterpillars of the armyworm (Spodoptera frugiperda).
After 7 days, the effect in % is determined. 100% means that all caterpillars have been killed; 0% means that none of the caterpillars have been killed.

Lucilia cuprina larvae = test: Lucilia cuprina test (LUCICU); settings: application rate 100 ppm; treated horse meat; after 2 days
Description: Lucilia cuprina test (LUCICU)
as §2
To produce a suitable preparation of active compound, 10 mg of active compound are mixed with 0.5 ml of dimethyl sulphoxide and the concentrate is diluted with water to the desired concentration. Containers containing horse meat treated with the active compound preparation of the desired concentration are populated with about 20 Lucilia cuprina larvae.
After 2 days, the kill in % is determined. 100% means that all larvae have been killed; 0% means that none of the larvae have been killed.

Compound | efficacy (spider mites killed) [1] | efficacy (aphids killed) ([2]; application rate 500 g/ha) | efficacy (deposition of fertile eggs) (Boophilus microplus) | efficacy (beetle larvae killed) [3] | efficacy (aphids killed) ([2]; application rate 100 g/ha) | efficacy (caterpillars killed) [4] | efficacy (kill of larvae) (Lucilia cuprina larvae)
CCc1c(-c2ccc(F)cc2)ccc(C)c1C1=C(O)C2(CCC(OC)CC2)NC1=O (stereo not drawn) [Example I-1-a-9] | 70% | 90% | 100% | 83% |  |  | 
CCc1ccc(-c2ccc(Cl)cc2)c(CC)c1C1=C(O)C2(CCOCC2)OC1=O [Example I-2-a-3] | 100% | 90% |  |  |  |  | 
CCOC(=O)OC1=C(c2c(CC)ccc(-c3ccc(F)cc3)c2C)C(=O)NC12CCC(OC)CC2 (single isomer, unassigned) [Example I-1-c-3] | 90% | 100% |  |  |  |  | 
CCc1cc(C)c(-c2ccc(Cl)cc2)c(C)c1C1=C(O)C2(CCC(OC)CC2)NC1=O (stereo not drawn) [Example I-1-a-7] | 90% |  |  | 100% | 90% |  | 
CCOC(=O)OC1=C(c2c(CC)ccc(-c3ccc(Cl)cc3)c2C)C(=O)NC12CCC(OC)CC2 (stereo not drawn) [Example I-1-c-2] | 100% | 100% |  |  |  |  | 
CCc1ccc(-c2ccc(F)cc2)c(C)c1C1=C(OC(=O)C(C)C)C2(CCC(OC)CC2)NC1=O (stereo not drawn) [Example I-1-b-3] | 100% | 90% |  |  |  |  | 
CCc1ccc(-c2ccc(Cl)cc2)c(CC)c1C1=C(O)[C@]2(CC[C@@H](OC)CC2)OC1=O [Example I-2-a-2] |  | 90% |  |  |  |  | 
CCc1c(-c2ccc(Cl)cc2)ccc(C)c1C1=C(O)C2(CCC(OC)CC2)NC1=O (stereo not drawn) [Example I-1-a-16] | 90% | 100% |  |  |  | 100% | 
CCc1ccc(-c2ccc(Cl)cc2)c(C)c1C1=C(O)C2(CCC(OC)CC2)OC1=O (single isomer, unassigned) [Example I-2-a-5] |  | 90% |  | 100% |  |  | 
CCc1ccc(-c2ccc(Cl)cc2)c(CC)c1C1=C(O)C2(CCC(OC)CC2)NC1=O (stereo not drawn) [Example I-1-a-19] | 90% |  |  | 100% |  |  | 
CCc1ccc(-c2ccc(Cl)cc2)c(C)c1C1=C(O)C2(CCOCC2)OC1=O [Example I-2-a-7] | 100% | 100% |  |  |  | 100% | 
CCc1ccc(-c2ccc(Cl)cc2)c(CC)c1C1=C(O)C2(CCOCC2)NC1=O [Example I-1-a-1] | 80% | 100% |  | 100% |  |  | 
CCc1ccc(-c2ccc(F)cc2)c(C)c1C1=C(O)C2(CCC(OC)CC2)NC1=O (stereo not drawn) [Example I-1-a-4] | 100% | 90% |  | 83% |  |  | 
Cc1c(-c2ccc(F)cc2)ccc(Cl)c1C1=C(O)C2(CCOCC2)NC1=O [Example I-1-a-13] | 100% | 100% | 80% |  |  | 100% | 90%
CCc1cc(C)c(-c2ccc(Cl)cc2)c(C)c1C1=C(O)C2(CCOCC2)NC1=O [Example I-1-a-8] | 90% | 100% |  | 100% |  |  | 
CCc1ccc(-c2ccc(Cl)cc2)c(CC)c1C1=C(OC(=O)C(C)C)C2(CCOCC2)NC1=O [Example I-1-b-1] | 80% |  |  |  |  | 83% | 
CCc1c(-c2ccc(Cl)cc2)ccc(C)c1C1=C(O)C2(CCOCC2)NC1=O [Example I-1-a-17] | 100% | 100% |  |  |  |  | 

Compound | efficacy (spider mites killed) [1] | efficacy (aphids killed) ([2]; application rate 500 g/ha) | efficacy (deposition of fertile eggs) (Boophilus microplus) | efficacy (beetle larvae killed) [3] | efficacy (aphids killed) ([2]; application rate 100 g/ha) | efficacy (caterpillars killed) [4] | efficacy (kill of larvae) (Lucilia cuprina larvae)
CCc1c(-c2ccc(F)cc2)ccc(C)c1C1=C(O)C2(CCOCC2)NC1=O [Example I-1-a-10] | 100% | 100% | 80% |  |  |  | 90%
CCON1CCC2(CC1)NC(=O)C(c1c(CC)ccc(-c3ccc(Cl)cc3)c1C)=C2O [Example I-1-a-22] | 90% | 100% |  | 100% |  |  | 
CCc1ccc(-c2ccc(Cl)cc2)c(C)c1C1=C(O)C2(CCC(OC)CC2)OC1=O (single isomer, unassigned) [Example I-2-a-6] | 100% | 100% |  | 100% |  |  | 
CCOC(=O)OC1=C(c2c(CC)ccc(-c3ccc(Cl)cc3)c2CC)C(=O)NC12CCOCC2 [Example I-1-c-1] |  | 90% |  |  |  |  | 
CCc1c(-c2ccc(F)cc2)ccc(C)c1C1=C(OC(=O)C(C)C)C2(CCC(OC)CC2)NC1=O (stereo not drawn) [Example I-1-b-2] |  | 90% |  |  |  |  | 
Cc1c(-c2ccc(Cl)cc2)ccc(Cl)c1C1=C(O)C2(CCOCC2)NC1=O [Example I-1-a-15] | 90% | 100% |  |  |  | 83% | 100%
CCc1ccc(-c2ccc(Cl)cc2)c(C)c1C1=C(O)C2(CCOCC2)NC1=O [Example I-1-a-3] | 90% | 100% | 80% | 100% |  | 80% | 
CCc1ccc(-c2ccc(Cl)cc2)c(C)c1C1=C(OC(=O)C(C)C)C2(CCC(OC)CC2)NC1=O (stereo not drawn) [Example I-1-b-4] | 90% | 100% |  |  |  | 100% | 
CCc1ccc(-c2ccc(F)cc2)c(CC)c1C1=C(O)C2(CCOCC2)NC1=O [Example I-1-a-20] | 100% | 100% |  |  |  |  | 
O=C1NC2(CCOCC2)C(O)=C1c1c(Cl)ccc(-c2ccc(Cl)cc2)c1Cl [Example I-1-a-2] |  | 100% | 95% |  |  | 100% | 100%
CCc1ccc(-c2ccc(Cl)cc2)c(C)c1C1=C(O)C2(CCN(OC)CC2)NC1=O [Example I-1-a-23] | 90% | 100% |  | 100% |  |  | 
CCc1ccc(-c2ccc(Cl)cc2)c(C)c1C1=C(O)C2(CCC(OC)CC2)NC1=O (stereo not drawn) [Example I-1-a-21] | 100% | 100% |  |  |  |  | 
CCc1ccc(-c2ccc(F)cc2)c(C)c1C1=C(O)C2(CCOCC2)NC1=O [Example I-1-a-5] | 90% | 100% |  |  |  |  | 
CCc1ccc(-c2ccc(Cl)cc2)c(CC)c1C1=C(O)[C@]2(CC[C@H](OC)CC2)OC1=O [Example I-2-a-1] | 100% | 90% |  | 100% |  |  | 
O=C1NC2(CCOCC2)C(O)=C1c1c(Cl)ccc(-c2ccc(F)cc2)c1Cl [Example I-1-a-6] | 100% | 100% | 90% |  |  |  | 
CCc1ccc(-c2ccc(Cl)cc2)c(CC)c1C1=C(O)C2(CCN(OC)CC2)NC1=O [Example I-1-a-24] | 100% |  |  |  |  |  | 
CCc1ccc(-c2ccc(F)cc2)c(CC)c1C1=C(O)C2(CCC(OC)CC2)NC1=O (stereo not drawn) [Example I-1-a-18] | 100% | 100% |  |  |  |  | 
